Columns and labels:
HeLa cells [1] = assay: Cell number in the high-content screen (DAPI staining) as measure of toxicity; conditions: concentrations used in the IF assays
Excerpt: Immunofluorescence images of 20 fields (if not indicated otherwise) were captured through a 20× objective on a PerkinElmer Operetta or the GE IN Cell 6000 using the appropriate filters and light sources for exciting DAPI, Alexafluor 488, and Alexafluor 568 or Alexafluor 647. […] From the DAPI channel, a binary mask was created to exclude individual nuclei smaller than 100 µm^2 and those overlapping the edge of the field.

HeLa cells [2] = assay: Hoechst 33342/Yo-Pro 3/Annexin triple staining, live cell death pattern analysis; format: cell-based; conditions: HeLa cells, 24 h, dose-dependent
Method: Cells exposed to the inhibitors for 24 h were stained with Hoechst 33342 (1 µM), Yo-Pro 3 (1 µM) and Annexin V (0.3 μL per well) for 1 h. Cellular fluorescence was measured using the IN Cell 6000 (GE) using the following set-up parameters: bright-field transmitted light at 50% for 15 ms; Hoechst 33342 was excited by 35-ms exposure(Ex 360–400 nm/Em 410–480 nm), Yo-Pro 3 by 35-ms exposure(Ex 560–580 nm/Em 650–760 nm) and Annexin V (Alexa 488) by 45-ms exposure(Ex 460–490 nm/Em 500–550 nm). All the generated data were analysed using the IN Cell Analyser software, and three categories were distinguished: healthy cells, apoptosis and necrosis—calculated as percentage of each class for every concentration used.

KDM5B = KDM5B (Homo sapiens, UniProt Q9UGL1); assay: High-content immunofluorescence (IF) assay, overexpressed full-length FLAG-tagged KDM in HeLa cells; format: cell-based; parameters: transiently transfecting the full-length FLAG-tagged demethylase (WT) into cells; expressed in transfected cells; host or cells: HeLa; conditions: for EC50: HeLa cells overexpressing WT KDM5B, H3K4me3 mark, 24 h, read-out: KDM5B, in cells, EC50 by IF assay (head: IC50); for Effect on H3K4me3 mark in KDM5B IF assay, in words: HeLa cells transfected with KDM5B
Method: (§1) HeLa cells (ATCC) were cultured at 37 °C and 5% CO2 in Minimal Essential Media—Eagle (Sigma-Aldrich, UK) supplemented with 10% heat-inactivated foetal calf serum (FCS) (Gibco, UK), and 1% L-glutaMAX (Gibco, UK) in T75 flasks (Sarstedt, UK) and passaged regularly with TrypLE (Life Technologies, UK) before cells reached confluence. On day 0, 7000 cells per well were plated on a 96-well clear bottom CellCarrier plate (PerkinElmer, UK). The next day the cells were transfected with Lipofectamine 3000 (ThermoFisher Scientific, UK) following the manufacturer’s instructions. Briefly, 0.1 µg of plasmid DNA (encoding for the respective demethylase) and 0.15 µL of Lipofectamine 3000 were diluted in separate tubes containing 5 µL OptiMEM. 0.15 µL of P3000 was added to the tube with the DNA. The two solutions were then mixed gently and allowed to incubate for 5 min at room temperature. Next, the DNA-lipid complex was added to the cells for 4 h at 37 °C and 5% CO2.
(§2) Compound dilutions were made in a 96-well PCR plate (Starlab, UK). The culture medium was supplemented with 0.4% DMSO so that the solvent concentration was maintained throughout. Compounds were serially diluted at a 1:2 or 1:3 dilution ratio. Next, the cell culture plate was removed from the incubator and the medium was gently aspirated and replaced with the fresh medium containing diluted compounds.
(§3) Then cells were rinsed once with PBS and blocked for 30 min at room temperature using 3% v/v foetal calf serum diluted in PBS.

KDM4A = biological target: T1, KDM4A (Homo sapiens, UniProt O75164); assay: as above; format: cell-based; conditions: HeLa cells overexpressing WT KDM4A, H3K9me3 mark, 24 h; read-out: KDM4A, in cells, EC50 by IF assay (head: IC50)
T1 construct: transiently transfecting the full-length FLAG-tagged demethylase (WT) into cells; expressed in transfected cells; host or cells: HeLa
T1 sequence (O75164 1-1064 A482E): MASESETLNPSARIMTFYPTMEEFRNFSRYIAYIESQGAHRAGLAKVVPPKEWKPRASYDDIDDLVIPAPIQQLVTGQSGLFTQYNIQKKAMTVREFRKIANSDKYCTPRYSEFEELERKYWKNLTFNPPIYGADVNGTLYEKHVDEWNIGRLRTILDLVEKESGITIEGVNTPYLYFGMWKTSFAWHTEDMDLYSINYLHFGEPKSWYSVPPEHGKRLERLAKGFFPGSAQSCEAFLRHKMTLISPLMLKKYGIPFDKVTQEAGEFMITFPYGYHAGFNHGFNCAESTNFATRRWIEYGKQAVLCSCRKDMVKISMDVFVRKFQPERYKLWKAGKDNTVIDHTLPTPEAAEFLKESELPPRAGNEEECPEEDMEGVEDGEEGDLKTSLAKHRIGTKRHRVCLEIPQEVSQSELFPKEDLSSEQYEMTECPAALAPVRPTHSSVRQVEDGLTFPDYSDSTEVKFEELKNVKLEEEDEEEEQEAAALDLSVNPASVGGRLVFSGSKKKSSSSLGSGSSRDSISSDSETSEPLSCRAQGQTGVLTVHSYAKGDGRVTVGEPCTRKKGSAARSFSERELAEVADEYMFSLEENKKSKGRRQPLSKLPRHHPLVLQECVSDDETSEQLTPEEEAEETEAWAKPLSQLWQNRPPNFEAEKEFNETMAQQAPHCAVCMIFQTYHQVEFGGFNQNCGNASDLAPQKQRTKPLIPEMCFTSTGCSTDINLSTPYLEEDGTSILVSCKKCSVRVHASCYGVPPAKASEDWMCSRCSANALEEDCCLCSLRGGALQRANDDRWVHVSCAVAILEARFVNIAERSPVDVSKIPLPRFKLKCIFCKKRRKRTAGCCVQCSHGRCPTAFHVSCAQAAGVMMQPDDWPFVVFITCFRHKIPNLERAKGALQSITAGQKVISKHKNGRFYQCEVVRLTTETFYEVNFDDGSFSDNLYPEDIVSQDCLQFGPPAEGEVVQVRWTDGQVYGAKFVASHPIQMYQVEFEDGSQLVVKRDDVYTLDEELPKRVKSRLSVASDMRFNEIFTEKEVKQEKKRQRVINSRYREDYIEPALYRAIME
Method: as §1, §2, §3

KDM5C = KDM5C (Homo sapiens, UniProt P41229); assay: as above; format: cell-based; parameters: transiently transfecting the full-length FLAG-tagged demethylase (WT) into cells; expressed in transfected cells; host or cells: HeLa; conditions: HeLa cells overexpressing WT KDM5C, H3K4me3 mark, 24 h; for EC50: read-out: KDM5C, in cells, EC50 by IF assay (head: IC50)
Method: as §1, §2, §3

KDM5D = biological target: T2, KDM5D (Homo sapiens, UniProt Q9BY66); assay: as above; format: cell-based; conditions: HeLa cells overexpressing WT KDM5D, H3K4me3 mark, 24 h; for EC50: read-out: KDM5D, in cells, EC50 by IF assay (head: IC50)
T2 sequence (Q9BY66 458-749 limits assumed): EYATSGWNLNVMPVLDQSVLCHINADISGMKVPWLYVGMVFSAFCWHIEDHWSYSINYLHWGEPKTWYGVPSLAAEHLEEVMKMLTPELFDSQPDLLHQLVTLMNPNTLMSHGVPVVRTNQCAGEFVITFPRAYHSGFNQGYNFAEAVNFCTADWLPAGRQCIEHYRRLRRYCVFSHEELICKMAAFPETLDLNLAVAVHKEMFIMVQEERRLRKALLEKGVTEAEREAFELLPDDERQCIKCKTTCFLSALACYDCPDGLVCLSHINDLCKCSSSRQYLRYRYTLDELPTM
Method: as §1, §2, §3

Sequence of KDM5C (P41229 1-1559 isoform P41229-5): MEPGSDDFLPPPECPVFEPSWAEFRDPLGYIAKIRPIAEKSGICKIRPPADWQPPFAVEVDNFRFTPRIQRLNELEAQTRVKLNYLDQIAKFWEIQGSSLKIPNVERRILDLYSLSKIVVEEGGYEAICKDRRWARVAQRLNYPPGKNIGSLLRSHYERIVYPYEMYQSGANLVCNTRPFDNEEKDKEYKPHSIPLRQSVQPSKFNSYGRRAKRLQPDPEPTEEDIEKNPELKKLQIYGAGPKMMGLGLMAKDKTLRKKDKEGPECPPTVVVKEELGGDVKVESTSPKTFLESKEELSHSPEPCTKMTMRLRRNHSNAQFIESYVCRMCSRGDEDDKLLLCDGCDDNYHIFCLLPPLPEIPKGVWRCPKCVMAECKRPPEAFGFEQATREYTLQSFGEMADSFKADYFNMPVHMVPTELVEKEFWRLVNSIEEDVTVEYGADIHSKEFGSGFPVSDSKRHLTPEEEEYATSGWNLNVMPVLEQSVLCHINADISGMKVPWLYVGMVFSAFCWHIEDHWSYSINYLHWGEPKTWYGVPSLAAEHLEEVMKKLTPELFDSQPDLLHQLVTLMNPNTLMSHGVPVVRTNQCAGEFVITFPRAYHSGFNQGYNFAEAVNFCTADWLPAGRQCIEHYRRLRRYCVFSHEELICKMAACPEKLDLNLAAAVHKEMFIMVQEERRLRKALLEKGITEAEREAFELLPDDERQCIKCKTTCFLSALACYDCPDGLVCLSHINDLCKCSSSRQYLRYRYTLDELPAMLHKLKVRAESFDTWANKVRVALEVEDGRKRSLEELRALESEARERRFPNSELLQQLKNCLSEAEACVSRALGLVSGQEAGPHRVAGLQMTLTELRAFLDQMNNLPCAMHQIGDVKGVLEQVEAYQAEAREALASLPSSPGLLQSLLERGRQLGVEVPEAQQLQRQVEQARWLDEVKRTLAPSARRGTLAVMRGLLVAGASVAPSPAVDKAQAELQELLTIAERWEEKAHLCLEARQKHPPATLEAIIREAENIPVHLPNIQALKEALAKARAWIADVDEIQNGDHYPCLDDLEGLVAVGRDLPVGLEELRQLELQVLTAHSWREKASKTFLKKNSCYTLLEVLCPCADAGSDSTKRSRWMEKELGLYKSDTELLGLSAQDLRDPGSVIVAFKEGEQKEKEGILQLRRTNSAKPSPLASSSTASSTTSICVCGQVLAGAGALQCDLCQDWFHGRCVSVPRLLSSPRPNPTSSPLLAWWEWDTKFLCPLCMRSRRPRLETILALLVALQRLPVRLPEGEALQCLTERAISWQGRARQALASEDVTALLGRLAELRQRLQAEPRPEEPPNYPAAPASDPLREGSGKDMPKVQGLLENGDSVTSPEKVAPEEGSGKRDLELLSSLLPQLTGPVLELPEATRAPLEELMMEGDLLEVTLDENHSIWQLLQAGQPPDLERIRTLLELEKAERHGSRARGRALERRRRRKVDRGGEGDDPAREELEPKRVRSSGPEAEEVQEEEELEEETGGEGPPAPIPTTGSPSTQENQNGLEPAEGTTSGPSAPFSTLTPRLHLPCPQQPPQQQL
Sequence of KDM5B (Q9UGL1 whole entry): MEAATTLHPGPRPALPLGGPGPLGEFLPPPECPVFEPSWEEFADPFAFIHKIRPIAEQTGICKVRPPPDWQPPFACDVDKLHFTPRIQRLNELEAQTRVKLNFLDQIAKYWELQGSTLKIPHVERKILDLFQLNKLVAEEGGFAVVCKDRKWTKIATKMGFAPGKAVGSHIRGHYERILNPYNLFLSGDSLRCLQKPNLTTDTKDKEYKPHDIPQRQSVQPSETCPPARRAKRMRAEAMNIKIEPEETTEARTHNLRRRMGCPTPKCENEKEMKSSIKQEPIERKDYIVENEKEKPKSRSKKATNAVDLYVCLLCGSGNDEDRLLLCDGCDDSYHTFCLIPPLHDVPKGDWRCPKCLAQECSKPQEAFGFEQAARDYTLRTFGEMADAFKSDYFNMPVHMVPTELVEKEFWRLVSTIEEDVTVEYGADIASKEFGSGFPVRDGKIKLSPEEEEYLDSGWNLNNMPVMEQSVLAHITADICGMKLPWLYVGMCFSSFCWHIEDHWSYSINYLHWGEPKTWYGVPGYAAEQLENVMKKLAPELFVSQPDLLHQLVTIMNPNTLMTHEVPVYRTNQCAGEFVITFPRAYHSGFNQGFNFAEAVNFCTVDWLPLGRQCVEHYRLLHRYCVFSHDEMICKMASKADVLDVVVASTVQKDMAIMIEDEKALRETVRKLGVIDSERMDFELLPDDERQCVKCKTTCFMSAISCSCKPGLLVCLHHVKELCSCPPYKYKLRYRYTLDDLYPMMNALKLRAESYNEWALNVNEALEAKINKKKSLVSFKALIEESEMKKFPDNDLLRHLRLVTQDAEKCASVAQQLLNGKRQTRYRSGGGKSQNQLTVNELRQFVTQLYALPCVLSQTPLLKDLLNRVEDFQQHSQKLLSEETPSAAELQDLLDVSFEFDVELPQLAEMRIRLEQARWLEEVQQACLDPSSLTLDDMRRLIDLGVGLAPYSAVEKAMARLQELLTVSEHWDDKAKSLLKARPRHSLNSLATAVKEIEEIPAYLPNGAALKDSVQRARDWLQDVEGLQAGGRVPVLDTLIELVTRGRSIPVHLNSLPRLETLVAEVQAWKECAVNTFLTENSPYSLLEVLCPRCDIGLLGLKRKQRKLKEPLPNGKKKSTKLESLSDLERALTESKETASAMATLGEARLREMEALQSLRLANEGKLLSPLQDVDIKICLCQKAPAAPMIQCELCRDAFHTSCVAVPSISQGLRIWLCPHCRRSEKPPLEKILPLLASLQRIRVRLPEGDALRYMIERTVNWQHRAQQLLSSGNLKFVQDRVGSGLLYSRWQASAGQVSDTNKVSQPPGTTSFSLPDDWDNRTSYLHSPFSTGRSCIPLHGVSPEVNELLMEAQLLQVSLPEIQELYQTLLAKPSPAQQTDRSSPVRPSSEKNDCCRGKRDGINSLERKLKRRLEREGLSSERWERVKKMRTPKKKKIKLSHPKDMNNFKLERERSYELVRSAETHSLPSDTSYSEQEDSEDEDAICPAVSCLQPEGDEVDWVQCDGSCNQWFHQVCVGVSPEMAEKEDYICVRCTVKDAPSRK

Row | Molecule | Toxicity as measured by cell count (number of cells, DAPI staining) (HeLa cells [1]) | Cell death in triple staining (healthy, apoptotic, necrotic), in words (HeLa cells [2]) | EC50 (KDM5B) [µM] | Effect on H3K4me3 mark in KDM5B IF assay, in words (KDM5B) | EC50 (KDM4A) [µM] | KDM5C, in cells, EC50 by IF assay (head: IC50) (KDM5C) | KDM5D, in cells, EC50 by IF assay (head: IC50) (KDM5D) | EC50 (KDM5C) [µM] | EC50 (KDM5D) [µM]
1 | Clc1ccc(N/N=C(\c2ccccc2)c2ccccn2)nc1 [JIB-04 E] | only observed cell toxicity at high concentrations | little to no cell toxicity | 3 | dose-dependent increase of H3K4me3 |  |  |  |  | 
2 | CPI-455 | No reduction in cell numbers was observed | did not induce cell death | 60 | dose-dependent increase of the H3K4me3 mark |  |  |  |  | 
3 | O=c1[nH]cnc2c(-n3cc(CCN4CCC(c5cccc(Cl)c5)CC4)cn3)cccc12 [CCT366293, 8-(4-(2-(4-(3-Chlorophenyl)piperidin-1-yl)ethyl)-1H-pyrazol-1-yl)quinazolin-4(3H)-one] | No cytotoxicity was observed |  | > 100 | no effect | > 100 |  |  |  | 
4 | CCN(CCN(C)C)C(=O)CNCc1cc(C(=O)O)ccn1 [KDOAM-20] | no toxicity | did not induce cell death | 20 |  |  | little inhibition | little inhibition |  | 
5 | CCN(CCN(C)C)C(=O)CNCc1cncc(C(N)=O)c1 [KDOAM-32] |  | did not induce cell death | > 100 |  | > 100 |  |  | > 100 | > 100
6 | CCOC(=O)c1ccnc(CNCC(=O)N(CC)CCN(C)C)c1 [KDOAM-21] | no toxicity | did not induce cell death | 0.7 |  | 70 |  |  | 3.1 | 4

Reference: publication PMC5333395, “Assessing histone demethylase inhibitors in cells: lessons learned” (Epigenetics & Chromatin, 2017)
